{"source": "patent US9555026B2", "about": "“Solid dispersion comprising amorphous cilostazol” (OTSUKA PHARMACEUTICAL CO., LTD., priority 2013, dated 2017)", "origin": "cited, not measured here", "details": "after meal versus fasting"}
{"smiles": "O=C1CCc2cc(OCCCCc3nnnn3C3CCCCC3)ccc2N1", "note": "[cilostazol, 6-[4-(1-cyclohexyl-1H-tetrazol-5-yl)butoxy]-3,4-dihydrocarbostyril]", "values": [{"measurement": "AUC administered after meal, higher than that of fasting", "value": 1.4, "unit": "times"}, {"measurement": "Cmax administered after meal, higher than that of fasting", "value": 2.3, "unit": "times"}]}
